Experimental findings from PMC11882969 (Nature Communications, 2025) are described below.

Data set [1] addresses T1, hCB2 (Homo sapiens, UniProt P34972). Description: Tango β-arrestin-2 recruitment, HTLA cells, CB2R. The conditions noted are these: hCB2; for EC50: read-out: Tango ß-arrestin recruitment EC50; for Emax: HTLA, read-out: Tango ß-arrestin recruitment Emax. In kind it is cell-based. Also noted: expressed in transfected cells; host or cells: HEK293 cells stably expressing human CB2R (Laboratory of Ken Mackie).
Procedure: The Tango β-arrestin-2 recruitment assays were performed as described[83]. In brief, HTLA cells (a gift from the laboratory of R. Axel) were transiently transfected with human CB1R or CB2R Tango DNA construct overnight in DMEM supplemented with 10 % FBS, 100 µg ml−1 streptomycin and 100 U ml−1 penicillin. The transfected cells were then plated into poly-L-lysine-coated 384-well white clear-bottom cell culture plates in DMEM containing 1% dialysed FBS at a density of 10,000–15,000 cells per well. After incubation for 6 h, the plates were added with drug solutions prepared in DMEM containing 1% dialysed FBS for overnight incubation. On the day of assay, medium and drug solutions were removed and 20 µl per well of BrightGlo reagent (Promega) was added. The plates were further incubated for 20 min at room temperature and counted using the Wallac TriLux Microbeta counter (PerkinElmer). The results were analysed using GraphPad Prism 9. Each experiment was performed in triplicate and functional IC50 values were determined from the mean of three independent experiments.

The test system of a further data set is Malate dehydrogenase. Description: Enzyme inhibition counter-screen, MDH. In kind it is biochemical. The conditions noted are these: for MDH activity (DMSO = 100), replicate means: Rep 1-3 mean, sheet FigureS2c; for MDH inhibition: Log[7019], sheet FigS2d. As for the experimental part:
(§1) Enzyme inhibition assays to test for colloidal inhibition were performed at room temperature using CLARIOstar Plate Reader (BMG Labtech). Samples were prepared in 50 mM KPi buffer, pH 7.0 with final DMSO concentration at 1% (v/v). Compounds were incubated with 2 nM AmpC β-lactamase (AmpC) or Malate dehydrogenase (MDH) for 5 min. AmpC reactions were initiated by the addition of 50 μM CENTA chromogenic substrate (219475, Calbiochem). […] MDH reactions were initiated by the addition of 200 μM nicotinamide adenine dinucleotide (NADH) (54839, Sigma Aldrich) and 200 μM oxaloacetic acid (324427, Sigma Aldrich). The change in absorbance was monitored at 340 nm for 60 sec. Initial rates were divided by the DMSO control rate to determine % enzyme activity. Each compound was screened at 100μM in triplicate for three independent experiments, if enzyme inhibition greater than 30% was observed, 8-point half-log concentrations were performed in triplicate for three independent experiments. Data was analyzed using GraphPad Prism 9.1.
On the technique in general: A counterscreen serves to expose hits that act by an unwanted route or on another target.

The next data set addresses AmpC β-lactamase (Escherichia coli, UniProt P00811). In kind it is biochemical. Conditions: for AMPC activity (DMSO = 100), replicate means: Rep 1-3 mean, sheet FigureS2c; for AmpC inhibition: Log[7019], sheet FigS2d. As for the experimental part:
as §1, with “[…].” for “Each compound was screened at 100μM in triplicate for three independent experiments, if enzyme inhibition greater than 30% was observed, 8-point half-log concentrations were performed in triplicate for three independent experiments.”

Data set [2] can be described thus: Dynamic light scattering, colloidal aggregation. The conditions noted are these: Log[compound, replicates, sheet FigS2b. In kind it is physicochemical. The method, then: Samples were prepared as 8-point half-log dilutions in filtered 50 mM KPi buffer, pH 7.0 with final DMSO concentration at 1% (v/v). Colloidal particle formation was measured using DynaPro Plate Reader II (Wyatt Technologies). All compounds were screened in triplicate.

Data set [3] has as its target T1, hCB2. Kind of data set: Radioligand competition binding, HEK293 cells expressing human CB2R. Further details: expressed in transfected cells; host or cells: HEK293 cells stably expressing human CB2R (Laboratory of Ken Mackie). Conditions: hCB2, log[drug], replicate columns. Background: In a radioligand displacement assay an active substance lowers the binding of a labelled ligand.

The subject of data set [4] is mice. Description: Acetone test, cold allodynia after spared nerve injury. In kind it is in vivo, mouse. The method, then: Mice were placed on a wire mesh and thirty min after an i.p. injection of the compounds we applied a drop (50 μL) of acetone on the ventral aspect of the hindpaw, 5 times every 30 sec. We recorded the number of nocifensive behaviors (paw lifts/licks/shakes/bites) over the 5 applications.

In data set [5] the test system is mice.
Procedure: For all behavioral tests, the experimenter was always blind to treatment. Animals were first habituated for 30-60 min in Plexiglas cylinders and then tested 30 min after i.p. or i.t. injection of the compounds. The thermal (Hargreaves, hotplate and tail flick) and ambulatory (rotarod) tests were conducted as described[96]. Briefly, hindpaw thermal sensitivity was measured with a radiant heat source (Hargreaves) or on a hotplate at 52 °C. For the tail flick assay, sensitivity was measured by immersing the tail into a 50 °C water bath. For the ambulatory (rotarod) test, before testing with any compound, mice underwent three trainings on three consecutive days until they reach 300 sec. Each training has three sessions of five min each. Therapeutic window was calculated as the ratio of the minimum dose of side effect phenotype to the minimum dose of analgesic phenotype.
The subject of data set [6] is mice. Description: Catalepsy test, vertical wire mesh. In kind it is in vivo, mouse. The method, then: Thirty min after an i.p. injection of the compounds, mice were placed on a vertical wire mesh and the latency to move all four paws was recorded.
Data set [7] concerns mice. Description: Tail flick, 50 °C water bath. Conditions: individual animals, sheet Figure7b, test not given. In kind it is in vivo, mouse.

“And” between values parts separate entries of the source, which are not always exact repeats. Equal entries are not always repeated. Where two headings read alike, the source gives them in different places. Marks after values point to notes of the source that are not given here.

AmpC β-lactamase, sequence (P00811 20-377): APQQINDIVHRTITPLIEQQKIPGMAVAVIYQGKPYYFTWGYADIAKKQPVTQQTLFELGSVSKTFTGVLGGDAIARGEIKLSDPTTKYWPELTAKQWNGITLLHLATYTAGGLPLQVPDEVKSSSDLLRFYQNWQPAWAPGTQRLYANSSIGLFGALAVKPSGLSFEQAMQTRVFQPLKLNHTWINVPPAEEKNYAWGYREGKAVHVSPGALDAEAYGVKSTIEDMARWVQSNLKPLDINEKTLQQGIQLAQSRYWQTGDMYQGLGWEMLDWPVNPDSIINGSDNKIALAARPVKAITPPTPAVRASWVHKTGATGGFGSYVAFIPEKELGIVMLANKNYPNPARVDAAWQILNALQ
T1 sequence (P34972 whole entry): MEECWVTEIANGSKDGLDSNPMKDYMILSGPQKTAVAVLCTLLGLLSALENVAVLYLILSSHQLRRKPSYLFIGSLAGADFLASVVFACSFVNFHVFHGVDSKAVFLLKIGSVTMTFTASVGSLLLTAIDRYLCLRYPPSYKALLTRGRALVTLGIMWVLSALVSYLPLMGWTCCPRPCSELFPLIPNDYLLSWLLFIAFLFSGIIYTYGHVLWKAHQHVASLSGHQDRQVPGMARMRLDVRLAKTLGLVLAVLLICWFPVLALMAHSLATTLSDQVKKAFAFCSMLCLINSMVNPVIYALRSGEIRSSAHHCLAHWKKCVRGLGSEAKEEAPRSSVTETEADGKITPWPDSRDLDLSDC

By EC50 is commonly meant the midpoint of the concentration-response curve. For the molecule `COC(=O)[C@@H]1[C@@H]2CCC[C@@H]2CN1C(=O)c1cc(C)n(-c2cccc(Cl)c2)n1` (racemic) [‘10010], on hCB2 [1], the “Tango ß-arrestin recruitment Emax” value was 18% [17 – 19], the “Tango ß-arrestin recruitment pEC50” value was 6.3 [6.2 – 6.3] and the EC50 worked out at 556 nM.

For `Cn1nc(-c2nnc(C(C)(C)Oc3ccc(Cl)cc3)o2)c2ccccc2c1=O` [‘0450], the “MDH activity (DMSO = 100), replicate means” value in the data set with Malate dehydrogenase is 124.427 and 98.8422 and 101.682. The “AMPC activity (DMSO = 100), replicate means” value on AmpC β-lactamase is 142.819 and 64.3814 and 173.064. Also, the DLS scattering intensity in data set [2] (uM] 0) is 721249 and 1482870 and 678793; in [2] (uM] 0.5), 820738 and 723783 and 889231; in data set [2] (uM] 1), 2818066 and 935392 and 954008; in data set [2] (uM] 1.49996) it was 37596765 and 31006318 and 24739178; in data set [2] (uM] 2) it was 93917555 and 151664189 and 85385693; in [2] (uM] -0.500011), 759174 and 1269323 and 983915. In addition, the DLS scattering intensity in data set [2] (uM] -1) is 623247 and 1064137 and 868483; in data set [2] (uM] -1.5), 703949 and 596678 and 546381.

The term Emax denotes the maximal effect, on the per cent scale that the assay sets. Regarding `COC(=O)C(NC(=O)c1cc(C)n(-c2cccc(C(F)(F)F)c2)n1)c1cccs1` (stereo not drawn) [‘60154], at hCB2 [1], the Emax worked out at 21%, the “Tango ß-arrestin recruitment pEC50” value is 5.5 [5.4 – 5.6] and the EC50 is 3340 nM.

As for `Cc1nc(CC2CC2)oc1-c1nc(Cc2cc3c(cc2Br)OCO3)no1` [‘7019], the MDH inhibition in the data set with Malate dehydrogenase (uM 0) is 0; in the data set with Malate dehydrogenase (uM 1) it was 0; in the data set with Malate dehydrogenase (uM 1.49996) it was 13.7; with Malate dehydrogenase (uM 2), 16.9; in the data set with Malate dehydrogenase (uM -0.500011), 0; in the data set on Malate dehydrogenase (uM -1), 0. Besides, the AmpC inhibition on AmpC β-lactamase (uM 0) stood at 0; at AmpC β-lactamase (uM 1), 0; on AmpC β-lactamase (uM 1.49996), 27.6; at AmpC β-lactamase (uM 2) it was 55.1; on AmpC β-lactamase (uM -0.500011), 0; at AmpC β-lactamase (uM -1), 0. The DLS scattering intensity in [2] (uM] 0) was 2130000 and 1970000 and 1380000; in [2] (uM] 1), 1540000 and 2950000 and 1930000; in data set [2] (uM] 1.49996), 46500000 and 37100000 and 47300000; in data set [2] (uM] 2), 1480000* and 177000000 and 144000000; in data set [2] (uM] -0.500011) it was 1270000 and 1420000 and 400669; in data set [2] (uM] -1) it was 2530000 and 1820000 and 2230000.

On to `COC(=O)C(NC(=O)c1cc(C)n(-c2cccc(F)c2)n1)c1cccs1` (stereo not drawn) [‘51486], for which the “MDH activity (DMSO = 100), replicate means” value with Malate dehydrogenase is 74.7583 and 87.0115 and 96.3724. For the same molecule, on AmpC β-lactamase, the “AMPC activity (DMSO = 100), replicate means” value was 133.645 and 104.886 and 117.294. The DLS scattering intensity in data set [2] (uM] 0) is 759657 and 686584 and 965322; in [2] (uM] 0.5), 1020197 and 797976 and 985220; in data set [2] (uM] 1), 599581 and 807564 and 813072; in data set [2] (uM] 1.49996), 1081636 and 666504 and 646696; in data set [2] (uM] 2) it was 2657372 and 4460546 and 3577303; in data set [2] (uM] -0.500011), 732851 and 712729 and 950123. The DLS scattering intensity is 747604 and 1271629 and 624256 in [2] (uM] -1); 774618 and 1013605 and 787428 in data set [2] (uM] -1.5).

Turning to `Cc1cc(C(=O)NC(C)(c2ccco2)c2ccco2)nn1-c1cccc(C(F)(F)F)c1` [‘4936], the “radioligand binding, competition curve point (normalized)” value was 0.8301 and 3.196 at hCB2 [3] (M = -6.64345); 5.0447 and 7.642 at hCB2 [3] (M = -7.35666); 20.2107 and 22.6869 on hCB2 [3] (M = -8.06987); 55.4917 and 61.8361 at hCB2 [3] (M = -8.78308); 84.5147 and 77.217 on hCB2 [3] (M = -9.49629); 91.2197 and 92.4778 on hCB2 [3] (M = -10.2095). Also, the “radioligand binding, competition curve point (normalized)” value on hCB2 [3] (M = -10.9227) is 85.5045 and 95.2415; on hCB2 [3] (M = -11.6359), 108.381 and 91.8049. Further, the “acetone test response after spared nerve injury (Figure5b), individual animals” value in the data set with mice [4] (Dose 0.2 mg/kg) was 92 and 82 and 36 and 30 and 65. Moreover, the “effect on acetone-induced nocifensive behaviors” value in the data set on mice [4] (spared nerve injury, i.p.) is given as “strongly reduced spared nerve injury-induced cold allodynia”. Also, in the data set on mice [5] (Figure 6e, vs rotarod), the “therapeutic window, Acetone” value amounted to 10. Also, in the data set with mice [5] (Figure 6e, vs rotarod), the “therapeutic window, Hot Plate” value came to 4. Also, the “therapeutic window, analgesia vs catalepsy” value with mice [5] (Figure 6f) was “greater than 5”. Further, the “catalepsy (Figure6c), individual animals” value is 0.9 and 0.7 and 0.8 (2×) and 0.4 in the data set with mice [6] (0.2 mg/kg dose); 0.6 (3×) and 0.8 and 0.9 in the data set with mice [6] (0.5 mg/kg dose); 0.7 and 0.6 and 1.2 and 1.1 (2×) in the data set with mice [6] (1 mg/kg dose). For the same molecule, the “catalepsy, latency to move all four paws” value in the data set with mice [6] (i.p., ‘1350 at 0.2 or 0.5 mg/kg, haloperidol 1.0 mg/kg) was “does not induce catalepsy at any tested dose up to 1 mg/kg”.

Take `COC(=O)C(C)(NC(=O)c1cc(C)n(-c2cccc(C(F)(F)F)c2)n1)c1cccs1` (stereo not drawn) [‘4042]: at hCB2 [1], the Emax came out at 28%, the “Tango ß-arrestin recruitment pEC50” value was 7.5 [7.2 – 7.7] and the EC50 is 33.9 nM. Also, in the data set on mice [7] ('4042 0.05 mg/kg, 0.05 mg/kg), the “Response relative to baseline (baseline about 100)” value is 262 and 191 and 164 and 198 and 183. In addition, the “Response relative to baseline (baseline about 100)” value in the data set with mice [7] ('4042 0.1 mg/kg, 0.1 mg/kg) was 419.4 and 155.9 and 181.4 and 122.5 and 239.8.

For the molecule `Cc1c(C(=O)OCC2CSc3ccccc3O2)cnn1Cc1ccccc1` (stereo not drawn) [‘7800], the DLS scattering intensity in [2] (uM] 0) was 1640000 and 1120000 and 1230000; in data set [2] (uM] 1), 22000000 and 23800000 and 19200000; in data set [2] (uM] 1.49996), 97300000 and 53900000 and 120000000; in [2] (uM] 2), 210000000 and 155600000 and 163000000; in data set [2] (uM] -0.500011), 631259 and 1270000 and 2510000; in data set [2] (uM] -1), 884292 and 807566 and 1180000.

Regarding `COC(=O)[C@@H]1[C@@H]2CCC[C@@H]2CN1C(=O)c1cc(C)n(-c2cccc(C(F)(F)F)c2)n1` [‘6439], at hCB2 [1], the “Tango ß-arrestin recruitment Emax” value came out at 14% [13 – 15], the “Tango ß-arrestin recruitment pEC50” value was 6.5 [6.4 – 6.6] and the EC50 amounted to 338 nM.
